Measurements taken from patent US8354443B2, “Cyclopropane indolinone derivatives” (Hoffmann-La Roche Inc., priority 2009, dated 2013).

System: recombinant AMPK proteins (α1β1γ1, α2β1γ1, α1(1-335), α1(1-394) or α2(1-394))
Test: Scintillation Proximity Assay (AMPK activation)
Assay type: biochemical, human
Settings: effective concentration of activator for 50% of maximal enzyme activity; 2 hr at 30° C.; AMPK form not specified
Excerpt: Recombinant human AMPK α1β1γ1, α2β1γ1 or AMPK a subunit truncations α1 (1-335), α1 (1-394) and α2(1-394) were constructed, expressed and purified as described previously (Pang, T., Zhang, Z. S., Gu, M., Qiu, B. Y., Yu, L. F., Cao, P. R., Shao, W., Su, M. B., Li, J. Y., Nan, F. J., and Li, J. (2008) or purchased from Invitrogen (San Diego, Calif., U.S.A.). Rat liver AMPK heterotrimer enzyme was obtained from Upstate (Billerica, Mass., U.S.A.).
Before the Scintillation Proximity Assay (SPA) assay, 200 nM recombinant AMPK proteins (α1β1γ1, α2β1γ1, α1(1-335), α1(1-394) or α2(1-394)) were fully phosphorylated as described previously (Pang et al., 2008). SPA reactions were performed in 96-well plates at a final volume of 50 μl containing 20 mM Tris-HCl pH 7.5, 5 mM MgCl2, 1 mM DTT, 2 μM biotin-SAMS, 2 μM ATP, 0.2 μCi/well [γ-^33P]ATP, and various amount of activator. Reactions were initiated by the addition of 50 nM recombinant AMPK proteins to the reaction solutions and incubated at 30° C. for 2 hr. After that, reactions were terminated by the addition of 40 μl stop solution containing 80 μg streptavidin-coated SPA beads per well, 50 mM EDTA, 0.1% Triton X-100 in PBS, pH 7.5 and incubated for 1 hr. Finally, a 160 μl suspension solution containing 2.4 M CsCl, 50 mM EDTA, and 0.1% Triton X-100 in PBS (pH 7.5) was added to the reaction solution to suspend SPA beads completely. SPA signals were determined with a Wallac MicroBeta plate counter (PerkinElmer) 30 min later for calculation of the amount of product formed. The amount of products formed in 2 hr was plotted against activator concentrations to determine the effective concentration of the activator (EC50) required for 50% of maximal enzyme activity.

Structure (SMILES): O=C(O)c1cccc(CN2C(=O)[C@]3(C[C@@H]3c3cccc(F)c3)c3ccccc32)c1 (racemic) [Example 10, (1S,2R) and (1R,2S)-3-((2-(3-fluorophenyl)-2′-oxospiro[cyclopropane-1,3′-indoline]-1′-yl)methyl)benzoic acid]
- EC50: 2020 nM

Structure (SMILES): O=C(O)c1cccc(CN2C(=O)[C@]3(C[C@H]3c3cccc(F)c3)c3ccccc32)c1 (racemic) [Example 11, (1S,2S) and (1R,2R)-3-((2-(3-fluorophenyl)-2′-oxospiro[cyclopropane-1,3′-indoline]-1′-yl)methyl)benzoic acid]
- EC50: 2040 nM

Structure (SMILES): O=C(O)c1cccc(CN2C(=O)[C@]3(C[C@H]3c3ccccc3C(F)(F)F)c3ccccc32)c1 (racemic) [Example 12, (1S,2S) and (1R,2R)-3-((2′-oxo-2-(2-(trifluoromethyl)phenyl)-spiro[cyclopropane-1,3′-indoline]-1′-yl)methyl)benzoic acid]
- EC50: 2360 nM

Structure (SMILES): O=C(O)c1cccc(CN2C(=O)[C@@]3(C[C@@H]3c3ccc(Cl)cc3)c3cc(Cl)ccc32)c1 (racemic) [Example 14, (1R,2R) and (1S,2S)-3-((5′-chloro-2-(4-chlorophenyl)-2′-oxospiro[cyclopropane-1,3′-indoline]-1′-yl)methyl)benzoic acid]
- EC50: 2030 nM

Structure (SMILES): O=C(O)c1cccc(CN2C(=O)[C@@]3(C[C@@H]3c3ccc(Cl)cc3)c3cc(Br)ccc32)c1 (racemic) [Example 15, (1R,2R) and (1S,2S)-3-((5′-bromo-2-(4-chlorophenyl)-2′-oxospiro[cyclopropane-1,3′-indoline]-1′-yl)methyl)benzoic acid]
- EC50: 2480 nM

Structure (SMILES): O=C(O)c1cccc(CN2C(=O)[C@]3(C[C@@H]3c3ccc(Cl)cc3)c3cc(Br)ccc32)c1 (racemic) [Example 16, (1S,2R) and (1R,2S)-3-((5′-bromo-2-(4-chlorophenyl)-2′-oxospiro[cyclopropane-1,3′-indoline]-1′-yl)methyl)benzoic acid]
- EC50: 2720 nM

Structure (SMILES): N#Cc1ccc([C@@H]2C[C@]23C(=O)N(Cc2cccc(C(=O)O)c2)c2ccccc23)cc1 (racemic) [Example 17, (1S,2S) and (1R,2R)-3-((2-(4-cyanophenyl)-2′-oxospiro[cyclopropane-1,3′-indoline]-1′-yl)methyl)benzoic acid]
- EC50: 1630 nM

Structure (SMILES): COc1cccc([C@H]2C[C@]23C(=O)N(Cc2cccc(C(=O)O)c2)c2ccccc23)c1 (racemic) [Example 18, (1S,2R) and (1R,2S)-3-((2-(3-methoxyphenyl)-2′-oxospiro[cyclopropane-1,3′-indoline]-1′-yl)methyl)benzoic acid]
- EC50: 1660 nM

Structure (SMILES): COc1cccc([C@@H]2C[C@]23C(=O)N(Cc2cccc(C(=O)O)c2)c2ccccc23)c1 (racemic) [Example 19, (1S,2S) and (1R,2R)-3-((2-(3-methoxyphenyl)-2′-oxospiro[cyclopropane-1,3′-indoline]-1′-yl)methyl)benzoic acid]
- EC50: 1420 nM

Structure (SMILES): COc1ccc([C@@H]2C[C@]23C(=O)N(Cc2cccc(C(=O)O)c2)c2ccccc23)cc1 (racemic) [Example 20, (1S,2S) and (1R,2R)-3-((2-(4-methoxyphenyl)-2′-oxospiro[cyclopropane-1,3′-indoline]-1′-yl)methyl)benzoic acid]
- EC50: 900 nM

Structure (SMILES): COc1ccc([C@H]2C[C@]23C(=O)N(Cc2cccc(C(=O)O)c2)c2ccccc23)cc1 (racemic) [Example 21, (1S,2R) and (1R,2S)-3-((2-(4-methoxyphenyl)-2′-oxospiro[cyclopropane-1,3′-indoline]-1′-yl)methyl)benzoic acid]
- EC50: 2030 nM

Structure (SMILES): O=C(O)c1cccc(CN2C(=O)[C@]3(C[C@@H]3c3ccc(Cl)cc3)c3cc(F)ccc32)c1 (racemic) [Example 22, (1S,2R) and (1R,2S)-3-((2-(4-chlorophenyl)-5′-fluoro-2′-oxospiro[cyclopropane-1,3′-indoline]-1′-yl)methyl)benzoic acid]
- EC50: 11200 nM

Structure (SMILES): O=C(O)c1cccc(CN2C(=O)[C@]3(C[C@H]3c3ccc(Cl)cc3)c3cc(F)ccc32)c1 (racemic) [Example 23, (1S,2S) and (1R,2R)-3-((2-(4-chlorophenyl)-5′-fluoro-2′-oxospiro[cyclopropane-1,3′-indoline]-1′-yl)methyl)benzoic acid]
- EC50: 1660 nM

Structure (SMILES): O=C(O)c1cccc(CN2C(=O)[C@]3(C[C@@H]3c3ccc(F)cc3)c3ccccc32)c1 (racemic) [Example 24, (1S,2R) and (1R,2S)-3-((-2-(4-fluorophenyl)-2′-oxospiro[cyclopropane-1,3′-indoline]-1′-yl)methyl)benzoic acid]
- EC50: 5750 nM

Structure (SMILES): O=C(O)c1cccc(CN2C(=O)[C@]3(C[C@H]3c3ccc(F)cc3)c3ccccc32)c1 (racemic) [Example 26, (1S,2S) and (1R,2R)-3-((-2-(4-fluorophenyl)-2′-oxospiro[cyclopropane-1,3′-indoline]-1′-yl)methyl)benzoic acid]
- EC50: 1790 nM

Structure (SMILES): O=C(c1cccc(CN2C(=O)[C@]3(C[C@@H]3c3ccc(Cl)cc3)c3ccccc32)c1)N1CCCCC1 (racemic) [Example 60, (1S,2R) and (1R,2S)-2-(4-chlorophenyl)-1′-(3-(piperidine-1-carbonyl)benzyl) Spiro[cyclopropane-1,3′-indolin]-2′-one]
- EC50: 3500 nM

Structure (SMILES): CC(C)NC(=O)c1cccc(CN2C(=O)[C@@]3(C[C@H]3c3ccc(Cl)cc3)c3ccccc32)c1 (racemic) [Example 61, (1R,2S) and (1S,2R)-3-((2-(4-chlorophenyl)-2′-oxospiro[cyclopropane-1,3′-indoline]-1′-yl)methyl)-N-isopropylbenzamide]
- EC50: 8670 nM

Structure (SMILES): O=C(c1cccc(CN2C(=O)[C@]3(C[C@@H]3c3ccc(Cl)cc3)c3ccccc32)c1)N1CCNCC1 (racemic) [Example 62, (1S,2R) and (1R,2S)-2-(4-chlorophenyl)-1′-(3-(piperazine-1-carbonyl)benzyl)spiro[cyclopropane-1,3′-indolin]-2′-one]
- EC50: 6570 nM

Structure (SMILES): O=C(c1cccc(CN2C(=O)[C@@]3(C[C@H]3c3ccc(Cl)cc3)c3ccccc32)c1)N1CCOCC1 (racemic) [Example 63, (1R,2S) and (1S,2R)-2-(4-chlorophenyl)-1′-(3-(morpholine-4-carbonyl)benzyl)spiro[cyclopropane-1,3′-indolin]-2′-one]
- EC50: 1540 nM

Structure (SMILES): O=C(c1cccc(CN2C(=O)[C@@]3(C[C@H]3c3ccc(Cl)cc3)c3ccccc32)c1)N1CCN(c2ccncc2)CC1 (racemic) [Example 64, (1R,2S) and (1S,2R)-2-(4-chlorophenyl)-1′-(3-(4-(pyridin-4-yl)piperazine-1-carbonyl)benzyl)spiro[cyclopropane-1,3′-indolin]-2′-one]
- EC50: 1600 nM

Structure (SMILES): CC(C)N1CCN(C(=O)c2cccc(CN3C(=O)[C@]4(C[C@@H]4c4ccc(Cl)cc4)c4ccccc43)c2)CC1 (racemic) [Example 65, (1S,2R) and (1R,2S)-2-(4-chlorophenyl)-1′-(3-(4-isopropylpiperazine-1-carbonyl)benzyl)spiro[cyclopropane-1,3′-indolin]-2′-one]
- EC50: 1710 nM

Structure (SMILES): Cc1cc(NC(=O)c2cccc(CN3C(=O)[C@@]4(C[C@H]4c4ccc(Cl)cc4)c4ccccc43)c2)[nH]n1 (racemic) [Example 67, (1R,2S) and (1S,2R)-3-((2-(4-chlorophenyl)-2′-oxospiro[cyclopropane-1,3′-indoline]-1′-yl)methyl)-N-(3-methyl-1 H-pyrazol-5-yl)benzamide]
- EC50: 2290 nM

Structure (SMILES): O=C(O)c1cccc(CN2C(=O)[C@]3(C[C@@H]3c3ccc(Cl)cc3)c3ccccc32)n1 (racemic) [Example 68, (1S,2R) and (1R,2S)-6-((2-(4-chlorophenyl)-2′-oxospiro[cyclopropane-1,3′-indoline]-1′-yl)methyl)picolinic acid]
- EC50: 2800 nM

Structure (SMILES): O=C1N(CC2CCOCC2)c2ccccc2[C@@]12C[C@@H]2c1ccc(Cl)cc1 (racemic) [Example 70, (1S,2R) and (1R,2S)-2-(4-chlorophenyl)-1′-((tetrahydro-2 H-pyran-4-yl)methyl)spiro[cyclopropane-1,3′-indolin]-2′-one]
- EC50: 1540 nM

Structure (SMILES): CCN(CC)CCN1C(=O)[C@]2(C[C@@H]2c2ccc(Cl)cc2)c2ccccc21 (racemic) [Example 71, (1S,2R) and (1R,2S)-2-(4-chlorophenyl)-1′-(2-(diethylamino)ethyl)spiro[cyclopropane-1,3′-indolin]-2′-one]
- EC50: 3200 nM

Structure (SMILES): O=C1N(CCN2CCOCC2)c2ccccc2[C@@]12C[C@@H]2c1ccc(Cl)cc1 (racemic) [Example 72, (1S,2R) and (1R,2S)-2-(4-chlorophenyl)-1′-(2-morpholinoethyl) spiro[cyclopropane-1,3′-indolin]-2′-one]
- EC50: 4100 nM
